Entries after “also recorded” stand apart in the source; their conditions may differ.
Columns and labels:
MDP = biological target: T1, MDP (Mus musculus, UniProt P31428); assay: inhibition of MDP activity (hydrolysis of Gly-D-Phe, fluorimetric); assay type: biochemical, murine; conditions: Gly-D-Phe 0.5 mM; extracts from MDP-expressing COS-1 cells; listed as GFE-1
T1 construct: The amplified 1.3 kb murine MDP cDNA was digested with KpnI and XbaI, and inserted into the same sites of the pcDNA3 expression vector; expressed in transfected cells; host or cells: COS-1 cells, pcDNA3 expression vector
T1 sequence (P31428 17-384): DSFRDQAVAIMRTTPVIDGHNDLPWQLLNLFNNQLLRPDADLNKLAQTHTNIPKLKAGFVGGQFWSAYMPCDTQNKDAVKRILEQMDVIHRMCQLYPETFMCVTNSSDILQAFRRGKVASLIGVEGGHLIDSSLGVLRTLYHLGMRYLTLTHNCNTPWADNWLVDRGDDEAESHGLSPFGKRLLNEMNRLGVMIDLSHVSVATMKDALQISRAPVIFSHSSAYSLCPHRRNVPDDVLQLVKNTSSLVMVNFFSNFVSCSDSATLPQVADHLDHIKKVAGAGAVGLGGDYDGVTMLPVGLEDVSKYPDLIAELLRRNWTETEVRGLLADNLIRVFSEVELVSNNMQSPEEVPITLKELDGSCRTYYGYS
Procedure: […] […] Fluorescence was measured using an fmax fluorescence microplate reader from Molecular Devices (Sunnyvale, Calif.).
Phage binding to COS-1 cells transfected with MDP was determined as follows. Briefly, 10^7 COS-1 cells were transfected with 10 μg of either the MDP expression vector or the vector alone. After 48 hours, cells were scraped gently from the dish, washed once, and subjected to the phage binding assay or membrane dipeptidase activity assay described above. For the phage binding assay, 5×10^6 cells and 10^10 transducing units (TU) of phage input were used. For measurement of membrane dipeptidase activity, 10^6 cells were lysed in 100 μl of PBS/octylglycoside without protease inhibitors. A 10 μl aliquot of the extract was used to measure MDP activity.
Fluorimetric detection of D-Phe was performed as described above.

kidney cells = assay: phage binding assay on kidney primary cells; design: species or system mice; conditions: t test, p<0.02
Procedure: Phage binding to primary cells was performed as follows. Briefly, Balb/c mice (Harlan Sprague Dawley) were anesthetized with 0.017 ml/g of Avertin as described in Gardner et al., Lab. Animal Sci. 45:199-204 (1995), which is incorporated herein by reference. Under deep anesthesia, mice were perfused through the heart with 10 ml Dulbecco's modified Eagle's medium (DMEM; Irvine Scientific; Santa Ana, Calif.). The lungs, kidneys and brain were then collected, minced, placed in 2 ml of DMEM containing 0.5% BSA (Intergen; Purchase, N.Y.) and 0.5 μg/ml collagenase V (SIGMA) and incubated at 37° C. for 25 minutes. Following collagenase treatment, the tissue was forced through a […] pore cell strainer (Becton Dickinson; Franklin Lake, N.J.). The filtered cells were washed once with 10 ml DMEM supplemented with 10% serum. […] To ensure an equal input of the different phage to be tested, phage were titered several times using K91Kan bacteria (Smith and Scott, supra, 1993).
For the binding reaction, 10^9 transducing units (TU) of phage were incubated with 5×10^6 cells in 1 ml DMEM supplemented with 10% serum. The binding was performed at 4° C. for 2 hours with gentle agitation. […] Plates were incubated at 37° C. overnight before the colonies were counted (transducing units, TU).

rat lung blood vessels = assay: targeting of rat lung blood vessels by injected phage; assay type: in vivo; conditions: phage injected in the circulation
[1] = tested on: C8161 human melanoma cells; assay: experimental lung metastasis of C8161 human melanoma cells; assay type: in vivo, mice; conditions: 10^5 C8161 cells coadministered with 250 μg peptide, tail vein; five weeks after injection; listed as GFE-1
Procedure: Experimental lung metastasis was induced in mice using C8161 human melanoma cells essentially as described in Arap et al., Science 279:377-380 (1998) and Pasqualini et al., Nature Med. 11:1197-1203, each of which is incorporated herein by reference. Briefly, C8161 cells were cultured to 75% confluence and then collected with 2.5 mM EDTA/PBS. The C8161 cancer cells were injected into the tail vein of female nude BALB/c mice (two months old) at a concentration of 10^5 cells per animal. Two sets of five mice were injected with the cells alone; cells with 250 μg control CARAC peptide (SEQ ID NO: 443) or cells with 250 μg GFE-1 peptide (SEQ ID NO: 1). Each injection was in a total volume of 200 μl.
Mice were sacrificed five weeks after injection, and the lungs collected and weighed.

mouse B16 = assay: experimental lung metastasis of B16 melanoma cells; assay type: in vivo, mice; conditions: mouse B16 melanoma cell line
Excerpt: As disclosed herein, selective homing of GFE-1 (SEQ ID NO: 1) to lung endothelium in vivo is mediated by the cell surface protease, MDP.

Sequence: CGFECVRQCPERC [lung homing peptide]
- inhibition of hydrolysis of Gly-D-Phe by MDP (MDP): inhibits hydrolysis of the Gly-D-Phe substrate in a dose-dependent manner; also recorded: inhibited hydrolysis of the Gly-D-Phe substrate (0.5 mM) in a dose-dependent manner; also recorded: inhibition of MDP activity
- phage binding to kidney cells relative to fd-tet (kidney cells): higher than fd-tet binding
- targeting of rat lung blood vessels (rat lung blood vessels): selectively target rat lung blood vessels
- lung metastasis (lung weight) [1]: inhibit experimental lung metastasis; also recorded: significantly less; also recorded: inhibits lung metastasis of human melanoma cells
- experimental lung metastasis (mouse B16): inhibit experimental lung metastasis
